Structures can show the parent of a compound that is named as a salt.
Assay: RP, Restek Raptor Biphenyl, 100 × 2.1 mm, 2.7 µm, 50 °C, 0.4 mL/min, estimated dead time 0.55 min; A: water + 0.1% formic acid, pH 3; B: methanol + 0.1% formic acid, pH 3; gradient (min/%B) 0/5 1.12/5 6.41/99.5 10.01/99.5
Conditions: stereoisomer not certain

Row | Structure (SMILES) | LC retention time [min]
1 | O=C(O)c1cc(O)ccc1O [2,5-DIHYDROXYBENZOATE] | 2.57
2 | O=C(O)c1ccc(C(=O)O)o1 [2,5-Furandicarboxylic acid] | 1.51
3 | O=c1cccc(O)[nH]1 [2,6-DIHYDROXYPYRIDINE] | 3.3
4 | CSCCC(O)C(=O)O (stereo not drawn) [2-HYDROXY-4-(METHYLTHIO)BUTANOATE] | 2.51
5 | CCCCCCCCCCCCCCC(O)C(=O)O (stereo not drawn) [2-Hydroxyhexadecanoic acid] | 6.3
6 | CC(C)CC(O)C(=O)O (stereo not drawn) [2-Hydroxyisocaproic acid] | 2.76
7 | CCCCCCCCCCCCC(O)C(=O)O (stereo not drawn) [2-Hydroxytetradecanoic acid] | 6.09
8 | CC(C)C(O)(CC(=O)O)C(=O)O (stereo not drawn) [2-Isopropylmalic acid] | 2.76
9 | C=CCC(C)C(=O)O (stereo not drawn) [2-Methyl-4-pentenoic acid] | 3.16
10 | O=C(O)CCCC(=O)C(=O)O [2-Oxoadipic acid] | 0.793
11 | C=CC(=O)O [2-PROPENOATE] | 0.959
12 | CC(C)(CC(=O)O)CC(=O)O [3,3-Dimethylglutaric acid] | 3.16
13 | O=C(O)C(O)c1ccc(O)c(O)c1 (stereo not drawn) [3,4 DIHYDROXYMANDELATE] | 0.822
14 | N[C@@H](Cc1cc(I)c(O)c(I)c1)C(=O)O [3,5-DIIODO-L-TYROSINE] | 3.59
15 | O=C(O)CCc1ccc(O)cc1 [3-(4-Hydroxyphenyl)propionic acid] | 3.65
16 | O=C(O)CCCCCCC(O)CC(=O)O (stereo not drawn) [3-Hydroxy Sebacic Acid] | 3.95
17 | CC(O)(CC(=O)O)CC(=O)O [3-Hydroxy-3-methylglutaric acid] | 1.01
18 | O=C(O)CC(O)CC(=O)O [3-Hydroxyglutaric acid] | 0.77
19 | O=C(O)CCC(O)CC(=O)O (stereo not drawn) [3-Hydroxyhexanedioic Acid] | 0.954

Row | Structure (SMILES) | LC retention time [min]
20 | O=C(O)C(O)c1cccc(O)c1 (stereo not drawn) [3-Hydroxymandelic acid] | 1.52
21 | O=C(O)CCCCC(O)CC(=O)O (stereo not drawn) [3-Hydroxysuberic Acid] | 2.74
22 | O=C(O)Cc1c[nH]c2ccccc12 [3-Indoleacetic acid] | 4.19
23 | O=C(O)C=Cc1c[nH]c2ccccc12 [3-Indoleacrylic acid] | 4.71
24 | CC(CCC(=O)O)CC(=O)O (stereo not drawn) [3-Methyladipic acid] | 3.25
25 | CC(C)=CC(=O)NCC(=O)O [3-Methylcrotonyl Glycine] | 2.95
26 | CC(CC(=O)O)CC(=O)O [3-Methylglutaric acid] | 2.43
27 | N[C@@H](Cc1ccc(O)c([N+](=O)[O-])c1)C(=O)O [3-NITRO-L-TYROSINE] | 1.92
28 | C[C@H](CCC(=O)O)[C@H]1CC[C@H]2[C@@H]3CC[C@@H]4CC(=O)CC[C@]4(C)[C@H]3CC[C@]12C [3-Oxo-5β-cholanoic Acid] | 6.93
29 | CCCC(C(=O)O)C(O)C(=O)O (stereo not drawn) [3-Propylmalic acid] | 2.81
30 | CC(=O)NCCCC(=O)O [4-ACETAMIDOBUTANOATE] | 1.42
31 | O=C(O)c1ccc(O)cc1 [4-HYDROXYBENZOATE] | 0.822
32 | O=C(O)Cc1ccc(O)cc1 [4-Hydroxyphenylacetic acid] | 3.02
33 | O=C(O)C=Cc1cnc[nH]1 [4-Imidazoleacrylic acid] | 0.718
34 | Cc1ncc(CO)c(C(=O)O)c1O [4-PYRIDOXATE] | 1.8
35 | Cc1ncc2c(c1O)C(=O)OC2 [4-Pyridoxolactone] | 2.25
36 | NCC(=O)CCC(=O)O [5-AMINOLEVULINATE] | 1.05
37 | O=C1CCCCO1 [5-VALEROLACTONE] | 2.44
38 | O=C(O)CCCCCC(=O)O [6-CARBOXYHEXANOATE] | 3.35

Row | Structure (SMILES) | LC retention time [min]
39 | O=C(O)CCCCCCCCCO [10-HYDROXYDECANOATE] | 4.92
40 | CCC(C)CCCCCCCCCCCCC(=O)O (stereo not drawn) [14-Methylhexadecanoic acid] | 6.58
41 | CC(C)CCCCCCCCCCCCCC(=O)O [15-Methylpalmitic acid] | 6.58
42 | CC(C)CCCCCCCCCCCCCCCC(=O)O [17-Methylstearic acid] | 6.7
43 | C#CCCCCCCCCCCCCCCCC(=O)O [17-Octadecynoic acid] | 6.53
44 | C[C@H](CCC(=O)O)[C@H]1CC[C@H]2[C@@H]3[C@H](O)C[C@@H]4C[C@H](O)CC[C@]4(C)[C@H]3CC(=O)[C@]12C [(3ALPHA,5BETA,7ALPHA)-3,7-DIHYDROXY-12-OXOCHOLAN-24-OIC ACID] | 6.07
45 | Nc1ncnc2c1ncn2C1OC(COP(=O)(O)O)C(OP(=O)(O)O)C1O (stereo not drawn) [ADENOSINE 3',5'-DIPHOSPHATE] | 0.695
46 | COP(=O)(NC(C)=O)SC (stereo not drawn) [Acephate] | 2.34
47 | O=C(O)CCCCC(=O)O [Adipic acid] | 2.5
48 | O=C(O)CCCCCCCC(O)C(O)CCCCCCO (stereo not drawn) [Aleuritic acid] | 4.92
49 | CCCCCCCCCCCCCCCCCCCC(=O)O [Arachidic acid] | 6.68
50 | O=C(O)CCCCCCCC(=O)O [Azelaic acid] | 4.48
51 | O=Cc1ccccc1 [BENZALDEHYDE] | 2.98
52 | O=C(O)CCCCC1SCC2NC(=O)NC21 (stereo not drawn) [BIOTIN] | 4
53 | CCC(Oc1ccc(F)c(C(F)(F)F)c1)C(=O)NCc1ccccc1 (stereo not drawn) [Beflubutamid] | 5.9
54 | CCCCCCCCCCCCCCCCCCCCCC(=O)O [Behenic acid] | 6.86
55 | CC1=C(C(=O)Nc2ccccc2)SCCO1 [Carboxin] | 5.79
56 | CNC(=O)c1cc(Cl)cc(C)c1NC(=O)c1cc(Br)nn1-c1ncccc1Cl [Chlorantraniliprole] | 5.84

The next lines start with the values.

Row | LC retention time [min] | Structure (SMILES)
57 | 1.73 | COc1cc(C(O)C(=O)O)ccc1O (racemic) [DL-4-Hydroxy-3-methoxymandelic acid]
58 | 3.91 | O=C(O)C(O)Cc1c[nH]c2ccccc12 (racemic) [DL-Indole-3-lactic acid]
59 | 3.04 | COc1cc(CC(O)C(=O)O)ccc1O (racemic) [DL-Vanillactic acid lithium salt hydrate]
60 | 1.03 | O=C(O)CCCC(O)C(=O)O (racemic) [Disodium (2RS)-2-hydroxyadipate]
61 | 1.03 | CC(C(=O)O)C(O)(CC(=O)O)C(=O)O (racemic) [Trisodium 2-methylcitrate, racemic mixture of diastereomers]
62 | 0.835 | CC[n+]1cccc(S(=O)(=O)[O-])c1 [C2-APS]
63 | 1.67 | CCC[n+]1cccc(S(=O)(=O)[O-])c1 [C3-APS]
64 | 2.67 | CCCC[n+]1cccc(S(=O)(=O)[O-])c1 [C4-APS]
65 | 3.33 | CCCCC[n+]1cccc(S(=O)(=O)[O-])c1 [C5-APS]
66 | 3.92 | CCCCCC[n+]1cccc(S(=O)(=O)[O-])c1 [C6-APS]
67 | 4.41 | CCCCCCC[n+]1cccc(S(=O)(=O)[O-])c1 [C7-APS]
68 | 4.8 | CCCCCCCC[n+]1cccc(S(=O)(=O)[O-])c1 [C8-APS]
69 | 5.13 | CCCCCCCCC[n+]1cccc(S(=O)(=O)[O-])c1 [C9-APS]
70 | 5.39 | CCCCCCCCCC[n+]1cccc(S(=O)(=O)[O-])c1 [C10-APS]
71 | 5.61 | CCCCCCCCCCC[n+]1cccc(S(=O)(=O)[O-])c1 [C11-APS]
72 | 5.79 | CCCCCCCCCCCC[n+]1cccc(S(=O)(=O)[O-])c1 [C12-APS]
73 | 5.95 | CCCCCCCCCCCCC[n+]1cccc(S(=O)(=O)[O-])c1 [C13-APS]
74 | 6.1 | CCCCCCCCCCCCCC[n+]1cccc(S(=O)(=O)[O-])c1 [C14-APS]
75 | 6.23 | CCCCCCCCCCCCCCC[n+]1cccc(S(=O)(=O)[O-])c1 [C15-APS]

Row | LC retention time [min] | Structure (SMILES)
76 | 6.34 | CCCCCCCCCCCCCCCC[n+]1cccc(S(=O)(=O)[O-])c1 [C16-APS]
77 | 6.44 | CCCCCCCCCCCCCCCCC[n+]1cccc(S(=O)(=O)[O-])c1 [C17-APS]
78 | 6.52 | CCCCCCCCCCCCCCCCCC[n+]1cccc(S(=O)(=O)[O-])c1 [C18-APS]
79 | 6.61 | CCCCCCCCCCCCCCCCCCC[n+]1cccc(S(=O)(=O)[O-])c1 [C19-APS]
80 | 6.67 | CCCCCCCCCCCCCCCCCCCC[n+]1cccc(S(=O)(=O)[O-])c1 [C20-APS]
81 | 5.88 | CC(=O)OCC(=O)C1(O)CCC2C3CCC4=CC(=O)CCC4(C)C3C(O)CC21C (stereo not drawn) [CORTISOL 21-ACETATE]
82 | 5.49 | CC12CCC(=O)C=C1CCC1C2C(O)CC2(C)C1CCC2(O)C(=O)CO (stereo not drawn) [CORTISOL]
83 | 1.14 | Nc1nc2c(ncn2C2OC3COP(=O)(O)OC3C2O)c(=O)[nH]1 (stereo not drawn) [CYCLIC GMP]
84 | 5.85 | CC(CCC(=O)O)C1CCC2C3C(OS(=O)(=O)O)CC4CC(O)CCC4(C)C3CC(O)C12C (stereo not drawn) [Cholic acid 7-sulfate]
85 | 0.743 | O=C(O)CC(O)(CC(=O)O)C(=O)O [Citric acid]
86 | 6.21 | CC12CCC(=O)C=C1CCC1C2C(O)CC2(C)C(C(=O)CO)CCC12 (stereo not drawn) [Corticosterone]
87 | 3.79 | O=C(O)[C@H](O)Cc1ccccc1 [D-(+)-3-Phenyllactic acid]
88 | 0.818 | Nc1ncnc2c1ncn2C1CC(O)C(COP(=O)(O)O)O1 (stereo not drawn) [DEOXYADENOSINE MONOPHOSPHATE]
89 | 1.59 | Nc1nc2c(ncn2C2CC(O)C(CO)O2)c(=O)[nH]1 (stereo not drawn) [DEOXYGUANOSINE]
90 | 0.695 | O=c1ccn(C2CC(O)C(COP(=O)(O)O)O2)c(=O)[nH]1 (stereo not drawn) [DEOXYURIDINE-MONOPHOSPHATE]
91 | 1.22 | O=c1ccn(C2CC(O)C(CO)O2)c(=O)[nH]1 (stereo not drawn) [DEOXYURIDINE]
92 | 4.21 | CC1NC(=O)NC1CCCCCC(=O)O (stereo not drawn) [DETHIOBIOTIN]
93 | 0.695 | Nc1nc2c(ncn2C2CC(O)C(COP(=O)(O)OP(=O)(O)O)O2)c(=O)[nH]1 (stereo not drawn) [DGDP]
